Experimental data as given in US20090143279A1 (priority 2007, published 2009).
Several values for one entry are separate records, joined by “and”; a condition that tells them apart may be missing. Equal values may be shown once. Read-outs that look alike come from different tables or passages of the source. Where a SMILES comes first, the peptide text is derived from it.

Tested on: cytochrome c
Format: cell-based, mouse
[1] = composite Z-score vs mock-treated (DMSO) wells, concentration of each compound in μM
[2] = normalized score (composite Z-score vs DMSO mock-treated wells), compound concentration (μM)

SMILES | cyt c | cyt c [1] | further results
C#C[C@]1(O)CC[C@H]2[C@@H]3CCC4=CC(=O)CC[C@@H]4[C@H]3CC[C@@]21C [norethindrone] | 0.903 | – | cyt c (composite Z-score vs DMSO mock-treated wells): 0.056
CNCCCC1c2ccccc2C=Cc2ccccc21 [protriptyline] | – | – | cyt c (composite Z-score): −1.335
C[C@@H](O)[C@H]1C(=O)N2C(C(=O)O)=C(SCCN=CN)C[C@H]12 [imipenem] | −0.330 | – | –
C[C@]12C[C@H](O)[C@H]3[C@@H](CCC4=CC(=O)CC[C@@]43C)[C@@H]1CC[C@@H]2C(=O)CO [corticosterone] | −0.379 | – | –
CN1CCN2c3ccccc3Cc3ccccc3C2C1 (centres unmarked) [mianserine] | 0.473 | – | –
CC(C)(C)c1ccc(C(O)CCCN2CCC(C(O)(c3ccccc3)c3ccccc3)CC2)cc1 (centres unmarked) [terfenadine] | – | – | cyt c (composite Z-score vs DMSO): −0.611
COc1ccc(-c2cc(=O)c3c(OC)c(OC)c(OC)c(OC)c3o2)cc1OC [nobiletin] | 0.396 | – | –
CNCCC=C1c2ccccc2CCc2ccccc21 [nortriptyline] | – | – | cyt c (composite Z-score vs DMSO): 0.157 and 0.136
O=CC=Cc1ccc(O)cc1 [p-hydroxycinnamaldehyde] | – | −0.079 | –
CNC(=O)CSP(=S)(OC)OC [dimethoate] | 0.837 | – | –
C=C[C@H]1CN2CC[C@H]1C[C@H]2[C@H](O)c1ccnc2ccccc12 [cinchonidine] | – | −0.164 | –
Nc1c2c(nc3ccccc13)CCCC2 [9-amino-1,2,3,4-tetrahydroacridine] | – | – | cyt c (composite Z-score vs DMSO): 0.967
COc1ccc(C(C)=O)c(O)c1 [paeonol] | 0.306 | – | –
CCCc1cc(=O)[nH]c(=S)[nH]1 [propylthiouracil] | 0.762 and 0.717 | – | –
COc1cc(N)c(Cl)cc1C(=O)NC1CCN(CCCOc2ccc(F)cc2)CC1OC (centres unmarked) [cisapride] | – | – | cyt c [2]: −0.495
C=CCOc1ccccc1OCC(O)CNC(C)C (centres unmarked) [oxprenolol] | 0.047 | – | –
COc1ccc(C(CN(C)C)C2(O)CCCCC2)cc1 (centres unmarked) [venlafaxine] | – | 0.627 | –
CC[C@H]1OC(=O)C[C@@H](O)[C@H](C)[C@@H](O[C@@H]2O[C@H](C)[C@@H](O[C@H]3C[C@@](C)(O)[C@@H](O)[C@H](C)O3)[C@H](N(C)C)[C@H]2O)[C@@H](CC=O)C[C@@H](C)C(=O)/C=C/C(C)=C/[C@@H]1CO[C@@H]1O[C@H](C)[C@@H](O)[C@@H](OC)[C@H]1OC [tylosin] | – | −0.007 | –
COc1ccc([C@@H]2Sc3ccccc3N(CCN(C)C)C(=O)[C@@H]2OC(C)=O)cc1 [diltiazem] | 0.385 | – | cyt c (composite Z-score vs DMSO): −0.201
COc1ccc2c3c1O[C@H]1[C@@H](O)CC=C4[C@@H](C2)N(C)CC[C@]431 [neopine] | 0.421 | – | –
COc1ccc(CCC(=O)c2c(O)cc(O[C@@H]3O[C@H](CO)[C@@H](O)[C@H](O)[C@H]3O[C@@H]3O[C@@H](C)[C@H](O)[C@@H](O)[C@H]3O)cc2O)cc1O [neohesperidin dihydrochalcone] | 0.454 | – | –
CC(=O)Nc1ccccc1 [acetanilide] | – | – | cyt c (composite Z-score vs DMSO): 0.532
O=C(NCC(O)CO)c1c(I)c(C(=O)NCC(O)CO)c(I)c(N(CCO)C(=O)CO)c1I (centres unmarked) [ioversol] | 0.129 | – | –
CC1(C)[C@@H](OC(=O)CCC(=O)O)CC[C@]2(C)[C@H]3C(=O)C=C4[C@@H]5C[C@@](C)(C(=O)O)CC[C@]5(C)CC[C@@]4(C)[C@]3(C)CC[C@@H]12 [carbenoxolone] | 0.145 | – | –
CCC(NC(C)C)C(O)c1ccc(O)c2[nH]c(=O)ccc12 (centres unmarked) [procaterol] | – | −0.168 | –

SMILES | cyt c | cyt c [1] | further results
Cc1ccc(O)c([C@H](CCN(C(C)C)C(C)C)c2ccccc2)c1 [tolterodine] | −0.406 | – | –
COc1cc(OC)c2c(=O)c(-c3ccc4c(c3)OCO4)coc2c1 [derrustone] | – | 0.470 | –
CCN(CC)CCOc1ccc(C(=C(Cl)c2ccccc2)c2ccccc2)cc1 [clomiphene] | 0.699 | – | cyt c (composite Z-score vs DMSO mock-treated wells): 0.025
O=C(CCCN1CC=C(n2c(=O)[nH]c3ccccc32)CC1)c1ccc(F)cc1 [droperidol] | – | – | cyt c (composite Z-score vs DMSO): 0.270 and 0.161
[H]/N=C(/N)N/C(=N/[H])NCCc1ccccc1 [phenformin] | 0.241 | – | –
c1ccc(-c2ccc(C(c3ccccc3)n3ccnc3)cc2)cc1 (centres unmarked) [bifonazole] | 0.179 | – | –
CC1(C)S[C@@H]2[C@H](NC(=O)C3(N)CCCCC3)C(=O)N2[C@H]1C(=O)O [cyclacillin] | – | – | cyt c (composite Z-score): −0.886
C#C[C@]1(O)CC[C@H]2[C@@H]3CCC4=C(CCC(=O)C4)[C@H]3CC[C@@]21C [norethynodrel] | −0.145 | – | cyt c (composite Z-score vs DMSO mock-treated wells): −0.058
O=C(OCCOCCO)c1ccccc1Nc1cccc(C(F)(F)F)c1 [etofenamate] | −0.030 | – | –
CC(C)CC(N(C)C)C1(c2ccc(Cl)cc2)CCC1 (centres unmarked) [sibutramine] | – | 0.351 | –
O=c1ccc2ccc(O)cc2o1 [umbelliferone] | – | – | cyt c (composite Z-score): −0.272
NC(=O)c1cc[n+](CC2=C(C(=O)O)N3C(=O)[C@@H](NC(=O)[C@@H](c4ccccc4)S(=O)(=O)[O-])[C@H]3SC2)cc1 [cefsulodin] | – | −1.078 | –
CC(C)(O/N=C(\C(=O)N[C@@H]1C(=O)N2C(C(=O)[O-])=C(C[n+]3ccccc3)CS[C@H]12)c1csc(N)n1)C(=O)O [ceftazidime] | – | 0.740 | –
CCc1ccc(CCOc2ccc(CC3SC(=O)NC3=O)cc2)nc1 (centres unmarked) [pioglitazone] | – | −0.742 | –
C[N+]1(C)CCC(OC(=O)C(O)(c2ccccc2)C2CCCC2)C1 (centres unmarked) [glycopyrrolate] | 0.260 | – | –
C[C@H](CCC(=O)O)[C@H]1CC[C@H]2[C@@H]3[C@H](O)C[C@@H]4C[C@H](O)CC[C@]4(C)[C@H]3C[C@H](O)[C@]12C [cholic acid] | 0.514 | – | –
CN1[C@@H]2CC[C@H]1C[C@@H](OC(=O)C(CO)c1ccccc1)C2 (some centres unmarked) [atropine] | 1.709 | – | –
COc1ccc(-c2ccc(=N)n(CCCC(=O)O)n2)cc1 [gabazine] | −0.094 | – | –
CCN(CC)CC#CCOC(=O)C(O)(c1ccccc1)C1CCCCC1 (centres unmarked) [oxybutynin] | −0.352 | – | –
CN1CCN(CC/C=C2/c3ccccc3Sc3ccc(S(=O)(=O)N(C)C)cc32)CC1 [thiothixene] | 0.307 | – | –
CC(=O)N[C@@H](CC(=O)O)C(=O)N[C@@H](CCC(=O)O)C(=O)O [N-acetylaspartylglutamic acid] (Ac-Asp-Glu-OH) | – | 0.480 | –
C[N+](C)(C)CCOP(=O)(O)OP(=O)([O-])OC[C@H]1O[C@@H](n2ccc(N)nc2=O)[C@H](O)[C@@H]1O [citicoline] | – | 0.322 | –
CN/C(=N/CCSCc1nc[nH]c1C)NC#N [cimetidine] | 0.794 and 0.587 | – | –
CC(CCc1ccc(O)cc1)NCCc1ccc(O)c(O)c1 (centres unmarked) [dobutamine] | – | −0.289 | –
Cc1ncc(C[n+]2csc(CCO)c2C)c(N)n1 [thiamine] | – | – | cyt c (composite Z-score): 0.284

SMILES | cyt c | cyt c [1] | further results
O=C1C=C(O)C(=O)c2ccccc21 [lawsone] | −0.273 | – | –
CN1CCCC(n2nc(Cc3ccc(Cl)cc3)c3ccccc3c2=O)CC1 (centres unmarked) [azelastine] | – | 0.054 | –
CCOC(=O)Oc1c(OC)cc(C(=O)O[C@@H]2C[C@@H]3CN4CCc5c([nH]c6cc(OC)ccc56)[C@H]4C[C@@H]3[C@H](C(=O)OC)[C@H]2OC)cc1OC [syrosingopine] | – | – | cyt c [2]: 1.051
CN(CCCCCCCCCCN(C)C(=O)Oc1cccc([N+](C)(C)C)c1)C(=O)Oc1cccc([N+](C)(C)C)c1 [demecarium] | – | −0.211 | –
C=C(NC(=O)C(=C)NC(=O)c1csc(C2=N[C@@H]3c4csc(n4)[C@H]4NC(=O)c5csc(n5)[C@H]([C@](C)(O)[C@@H](C)O)NC(=O)[C@H]5CSC(=N5)/C(=C/C)NC(=O)[C@H]([C@@H](C)O)NC(=O)c5csc(n5)[C@]3(CC2)NC(=O)[C@H](C)NC(=O)C(=C)NC(=O)[C@H](C)NC(=O)[C@H]([C@@H](C)CC)N[C@@H]2C=Cc3c([C@H](C)O)cc(nc3[C@H]2O)C(=O)O[C@@H]4C)n1)C(N)=O [thiostrepton] | – | −1.134 | –
CCOC(=O)C1=C(C)NC(C)=C(C(=O)OC)C1c1cccc(Cl)c1Cl (centres unmarked) [felodipine] | – | −0.956 | –
CC(C)NCC(O)COc1ccc(COCCOC(C)C)cc1 (centres unmarked) [bisoprolol] | – | – | cyt c [2]: 0.874
N[C@@H](Cc1ccccc1)C(=O)N[C@@H](Cc1ccc(O)cc1)C(=O)O [phenylalanyltyrosine] (H-Phe-Tyr-OH) | – | −0.342 | –
CC(C(=O)O)c1ccc(C(=O)c2ccccc2)s1 (centres unmarked) [tiaprofenic acid] | – | – | cyt c [2]: 0.644
CC(C)NCC(O)COc1ccc(CC(N)=O)cc1 (centres unmarked) [atenolol, reference compound] | – | – | cyt c (composite Z-score vs DMSO): 0.403
CC(C)NCC(O)COc1ccc(CCOCC2CC2)cc1 (centres unmarked) [betaxolol] | 0.064 | – | –
N[C@@H](CCC(=O)N[C@@H](CS)C(=O)NCC(=O)O)C(=O)O [glutathione] | – | – | cyt c (composite Z-score vs DMSO): −0.913
O=C1C[C@@H]2OCC=C3CN4CC[C@]56c7ccccc7N1[C@H]5[C@H]2[C@H]3C[C@H]46 [strychnine] | – | – | cyt c (composite Z-score vs DMSO mock-treated wells): 0.031
CN1CCN2c3ccccc3Cc3ccccc3C2C1 (centres unmarked) [mianserin] | 0.027 | – | –
C[C@H]1CCCC(=O)CCC/C=C/c2cc(O)cc(O)c2C(=O)O1 [zearalenone] | – | −0.185 | –
O=C(/C=C/c1ccc(O)cc1)c1ccc(O)cc1O [isoliquiritigenin] | – | – | cyt c (composite Z-score): 0.089
C[C@@H]1O[C@@H](OC[C@H]2O[C@@H](Oc3c(-c4ccc(O)c(O)c4)oc4cc(O)cc(O)c4c3=O)[C@H](O)[C@@H](O)[C@@H]2O)[C@H](O)[C@H](O)[C@H]1O [rutoside] | – | −0.012 | –
CNCC(O)c1ccc(OC(=O)C(C)(C)C)c(OC(=O)C(C)(C)C)c1 (centres unmarked) [dipivefrin] | – | −0.180 | –
CC[C@H](C)C(=O)O[C@H]1C[C@H](O)C=C2C=C[C@H](C)[C@H](CC[C@@H](O)C[C@@H](O)CC(=O)O)[C@H]21 [pravastatin, reference compound] | – | 0.972 | –
N=C(N)NOCC[C@H](N)C(=O)O [canavanine] | – | −0.321 | –
NCCCC[C@H](N)C(=O)N[C@@H](Cc1ccccc1)C(=O)N[C@@H](Cc1ccc(O)cc1)C(=O)O [lysylphenylalanyltyrosine] (H-Lys-Phe-Tyr-OH) | – | 0.240 | –
O=C(O)c1cc(O)ccc1O [gentisic acid] | – | – | cyt c (composite Z-score vs DMSO mock-treated wells): 0.210
CC(=O)N[C@@H](CC(C)C)C(=O)O [N-acetyl-L-leucine] | 0.648 | – | –
